Experimental data taken from US10822376B2, “Biologically active peptides” (Baxalta Incorporated, priority 2008, dated 2020).
Read-outs that look alike come from different tables or passages of the source.

Key:
[1] = tested on: FVIII inhibited plasma; experiment: Defined Dual-Pathway Thrombin Generation Assay (DDPTGA, reagent C high), FVIII inhibited plasma; format: biochemical, human; conditions: FVIII inhibited plasma
[2] = tested on: Factor VII/VIIa deficient human plasma; experiment: DDPTGA (reagent B) in FVII depleted plasma; conditions: compounds at 50 μM and 80, 90 or 100 μM
Experimental: (§1) The Defined Dual-Pathway Thrombin Generation Assay is performed as described below, using a commercial test kit (Technothrombin TGA, Technoclone GmbH, Vienna, Austria). […] USA) are incubated four minutes at 37° C. Preferably, Reagent C high is used. Thrombin generation is started by the addition of 40 μl of one of several types of human plasma (37° C.). […] By deviating the original fluorescence data the amount of generated thrombin is calculated from a standard curve constructed using a concentration range of thrombin.
(§2) The in vitro thrombin generation assay based on the cleavage of Z-GGR-AMC to release the fluorophore AMC, described in the specific description, i.e. the Defined Dual-Pathway Thrombin Generation Assay was used to characterise the effect of the compounds in several depleted human plasmas. […] 10 μl peptide dilution, 40 μl TGA substrate and 40 μl plasma were used as described in the specific description.
(§3) The plasmas used in the experiments were fresh frozen and were deficient in Factor V, Factor VII/VIIa, Factor VIII, Factor X or Factor XI (George King Bio-Medical, Inc.). Residual coagulation factor levels of deficient plasmas were specified as less than 1%.
(§4) For each depleted plasma used in the experiments, compounds were tested at two concentrations, namely 50 μM and 80, 90 or 100 μM. A negative control was used, in which no test compound was included.

[3] = tested on: Factor V deficient human plasma; experiment: DDPTGA (reagent B) in FV depleted plasma; conditions: compounds at 50 μM and 80, 90 or 100 μM
Experimental: as §1, §2, §3, §4

[4] = tested on: Factor XI deficient human plasma; experiment: DDPTGA (reagent B) in FXI depleted plasma; conditions: compounds at 50 μM and 80, 90 or 100 μM
Experimental: as §1, §2, §3, §4

[5] = physchem; conditions: for solubility kinetic: pH 7.4; for solubility: pH 7.4, Aqueous solubility
Experimental: Aqueous solubility is measured in PBS at pH 7.4 either in an assay provided by Cerep (France, Catalog ref. 900-11a) or according to the following protocol. The aim of this procedure is to determine the solubility of a drug candidate (analyte) in a buffer, by estimating the saturation concentration of the candidate in the buffer using HPLC. A known concentration of the candidate in an organic solvent is used as a standard. A stock solution of the test compound in DMSO must be prepared as the initial step. […] DMSO stock-solutions are diluted to a final concentration of 50 μM with DMSO (100% reference-solution) and buffer (test-solution) to provide a minimum volume of 500 μL of each. Both solutions are shaken at 25° C. at 950 rpm in an Eppendorf “thermomixer comfort” for at least 60 min. The suspension is centrifuged at 22 330 g for at least two min and 100 μL of the supernatant is transferred into polypropylene-inserts placed in glass vials and closed by snap-ring caps. Alternatively the solutions can be prepared in microtiter plates with half of the previously described starting solvent volume. For the determination of the solubility all samples are analyzed by HPLC in triplicate. Injection volume is at least 10 μL. The obtained data are analyzed by “Chemstation-software” (Agilent, Waldbronn, Germany). The peaks from the analyses of the organic solutions are integrated and the arithmetic mean is reported as “AUC 1” (reference area of known amount injected at the HPLC). […] The ratio of the mean “AUC 2” and “AUC 1” is calculated and thus the percentage of the dissolved amount of compound in buffer is obtained and solubility can be reported in μM.

[6] = tested on: Factor VIII deficient human plasma; experiment: DDPTGA (reagent B) in FVIII depleted plasma; format: biochemical; conditions: compounds at 50 μM and 80, 90 or 100 μM; note: key: '+' means stimulates; '−' means does not stimulate
Excerpt: Preferably, Reagent C high is used.

[7] = tested on: Factor X deficient human plasma; experiment: DDPTGA (reagent B) in FX depleted plasma; conditions: compounds at 50 μM and 80, 90 or 100 μM
Experimental: as §1, §2, §3, §4

[8] = tested on: FVIII deficient plasma; experiment: Defined Dual-Pathway Thrombin Generation Assay (DDPTGA, reagent C high), FVIII deficient plasma; format: biochemical, human; conditions: FVIII deficient plasma
[9] = tested on: human FVIII inhibited plasma; experiment: Defined Intrinsic Thrombin Generation Assay (DITGA, triggered by FXIa and phospholipids); format: biochemical; conditions: for Activity in the Defined Intrinsic Thrombin Generation Assay: summary
[10] = Acute toxicology in mice; format: in vivo, mouse; conditions: C57BL/6, mouse, in vivo, 60 minutes following administration, read-out: Max dose within toxicity category: No detected toxicity
Experimental: Toxicology studies involved monitoring of attitude changes due to toxic effects immediately after application and twice daily; monitoring of body weight; histopathology of brain, heart, kidney, liver, lung. Experiments were performed in C57131/6 mice.
C57BI/6 mice weighing 18-20 g were administered with compounds in a suitable vehicle i.v. in the tail vein or i.p. or s.c at 10 ml/kg. Quantities of the compounds administered were in the range of 0.075 to 125 mg/kg (i.v.), 15-125 mg/kg (i.p.) and 125 mg/kg (s.c.). There were four mice per group. Attitude changes due to toxic effects were monitored immediately after administration of the compound and for 60 minutes thereafter. Body weight was monitored for five days after administration. At day 5 after administration, mice were culled and autopsy performed. Brain, heart, kidney, liver, lung and spleen were biopsied.
In the above table, the maximum dose tested giving rise to no detected toxicity, some toxicity or severe toxicity over the period of 60 minutes following administration is reported. “No detected toxicity” indicates no acute toxic observations.

Substance | Peak IIa FEIBA EU ([1]; peptide 50 μM) | Peak IIa FVIIa EU ([1]; peptide 50 μM) | Peak Time FEIBA EU ([1]; peptide 50 μM) | Peak Time FVIIa EU ([1]; peptide 50 μM) | Stimulation of thrombin generation [2] | Stimulation of thrombin generation [3] | Stimulation of thrombin generation [4] | solubility kinetic [5] | solubility [5] | Stimulation of thrombin generation [6] | Stimulation of thrombin generation [7] | Peak IIa FVIII EU ([8]; peptide 50 μM) | Peak Time FVIII EU ([8]; peptide 50 μM) | Thrombin peak time given as FEIBA equivalent activity ([9]; peptide 6.25 μM) | Thrombin peak time given as FEIBA equivalent activity ([9]; peptide 12.5 μM) | Thrombin peak time given as FEIBA equivalent activity ([9]; peptide 25 μM) | Thrombin peak time given as FEIBA equivalent activity ([9]; peptide 50 μM) | Thrombin peak time given as FEIBA equivalent activity ([9]; peptide 100 μM) | Activity in the Defined Intrinsic Thrombin Generation Assay [9] | NOAEL at 1 h ([10]; ip) | further results
Ac-RMKFDVWDLYFEIVW-NH2 [Peptide A01] | BLS (BLS = below lowest standard.) | BLS (BLS = below lowest standard.) | BLS (BLS = below lowest standard.) | BLS (BLS = below lowest standard.) | + | − | + | 9 µM | 9 µM | + | − | BLS (BLS = below lowest standard.) | BLS (BLS = below lowest standard.) | 97 mU/ml | 138 mU/ml | 160 mU/ml | 227 mU/ml | 338 mU/ml | possess activity | 20 mg/kg | Peak IIa FEIBA EU ([1]; peptide 90 μM): BLS (BLS = below lowest standard.); Peak IIa FVIIa EU ([1]; peptide 90 μM): BLS (BLS = below lowest standard.); Peak Time FEIBA EU ([1]; peptide 90 μM): BLS (BLS = below lowest standard.); Peak Time FVIIa EU ([1]; peptide 90 μM): BLS (BLS = below lowest standard.); Peak IIa FVIII EU ([8]; peptide 90 μM): BLS (BLS = below lowest standard.); Peak Time FVIII EU ([8]; peptide 90 μM): BLS (BLS = below lowest standard.); NOAEL at 1 h ([10]; iv): 20 mg/kg
Ac-WDLYFEIVW-NH2 [Peptide A05] | BLS (BLS = below lowest standard.) | BLS (BLS = below lowest standard.) | BLS (BLS = below lowest standard.) | BLS (BLS = below lowest standard.) | + | − | + | 6 µM | 6 µM | + | + | BLS (BLS = below lowest standard.) | BLS (BLS = below lowest standard.) | 390 mU/ml | 487 mU/ml | 562 mU/ml | 631 mU/ml | 816 mU/ml | possess activity | 15 mg/kg | Peak IIa FEIBA EU ([1]; peptide 100 μM): BLS (BLS = below lowest standard.); Peak IIa FVIIa EU ([1]; peptide 100 μM): BLS (BLS = below lowest standard.); Peak Time FEIBA EU ([1]; peptide 100 μM): BLS (BLS = below lowest standard.); Peak Time FVIIa EU ([1]; peptide 100 μM): BLS (BLS = below lowest standard.); Peak IIa FVIII EU ([8]; peptide 100 μM): BLS (BLS = below lowest standard.); Peak Time FVIII EU ([8]; peptide 100 μM): BLS (BLS = below lowest standard.)
